Tests used:
cancer cell lines = assay: Cell viability analysis (WST-1) on cancer cell lines; type: cell-based, human; settings: drug 10 μM, 72 hours, WST-1; Table 3
[1] = system: HI650 (Lung Adenocarcinoma); assay: Cell viability analysis, lung cancer HI650; type: cell-based, human
[2] = system: A549 (Lung Adenocarcinoma); assay: Cell viability analysis, lung cancer A549; type: cell-based, human
[3] = system: AGS (Gastric Adenocarcinoma); assay: Cell viability analysis, gastric cancer AGS; type: cell-based, human
[4] = system: MKN-45 (Gastric Adenocarcinoma); assay: Cell viability analysis, gastric cancer MKN-45; type: cell-based, human
[5] = system: HepG2 (Hepatocellular Carcinoma); assay: Cell viability analysis, hepatic cancer HepG2; type: cell-based, human
[6] = system: Hep3B (hepatocellular carcinoma); assay: Cell viability analysis, hepatic cancer Hep3B; type: cell-based, human
[7] = system: LoVo (Colorectal Adenocarcinoma); assay: Cell viability analysis, colon cancer LoVo; type: cell-based, human
[8] = system: A375 (Amelanotic Melanoma); assay: Cell viability analysis, skin cancer A375; type: cell-based, human
[9] = system: BCC (basal cell carcinoma); assay: Cell viability analysis, skin cancer BCC; type: cell-based, human
[10] = system: HeLa (Cervix Adenocarcinoma); assay: Cell viability analysis, cervical cancer HeLa; type: cell-based, human
[11] = system: C-33A (Cervical carcinoma); assay: Cell viability analysis, cervical cancer C-33A; type: cell-based, human
[12] = system: PC3 (p53−) (Prostate Adenocarcinoma); assay: Cell viability analysis, prostate cancer PC3; type: cell-based, human
[13] = system: TSGH-8301 (Urinary Bladder Carcinoma); assay: Cell viability analysis, bladder cancer TSGH-8301; type: cell-based, human
T24 = assay: Cell viability analysis, bladder cancer T24; type: cell-based, human
[14] = system: MCF7 (Mammary Gland, Adenocarcinoma); assay: Cell viability analysis, breast cancer MCF7; type: cell-based, human
[15] = system: MDA-MB-231 (Mammary Gland, Adenocarcinoma); assay: Cell viability analysis, breast cancer MDA-MB-231; type: cell-based, human
BxPC-3 = assay: Cell viability analysis, pancreatic cancer BxPC-3; type: cell-based, human
AsPC-1 = assay: Cell viability analysis, pancreatic cancer AsPC-1; type: cell-based, human
NIH: OVCAR-3 = assay: Cell viability analysis, ovarian cancer NIH: OVCAR-3; type: cell-based, human
TOV-21G = assay: Cell viability analysis, ovarian cancer TOV-21G; type: cell-based, human
[16] = system: SAS (Tongue squamous cell carcinoma); assay: Cell viability analysis, tongue cancer SAS; type: cell-based, human
U-2OS = assay: Cell viability analysis, osteosarcoma U-2OS; type: cell-based, human
[17] = system: 786-O (Renal adenocarcinoma); assay: Cell viability analysis, renal cancer 786-O; type: cell-based, human
[18] = system: HCT116 (p53+) (Colorectal Carcinoma)

Cc1cc(C2CCCCC2)n(O)c(=O)c1.NCCO [Ciclopirox ethanolamine]
inhibition effect on different cancer cell lines (cancer cell lines): significant inhibition effect
The results of antibiotic drug inhibiting cancer cell lines (cell viability analysis), H1650 [1]: 53.76
The results of antibiotic drug inhibiting cancer cell lines (cell viability analysis), A549 [2]: 23.67
The results of antibiotic drug inhibiting cancer cell lines (cell viability analysis), AGS [3]: 36.59
The results of antibiotic drug inhibiting cancer cell lines (cell viability analysis), MKN-45 [4]: 72.97
The results of antibiotic drug inhibiting cancer cell lines (cell viability analysis), HepG2 [5]: 102.4
The results of antibiotic drug inhibiting cancer cell lines (cell viability analysis), Hep3B [6]: 48.66
The results of antibiotic drug inhibiting cancer cell lines (cell viability analysis), LoVo [7]: 65.53
The results of antibiotic drug inhibiting cancer cell lines (cell viability analysis), A375 [8]: 21.76
The results of antibiotic drug inhibiting cancer cell lines (cell viability analysis), BCC [9]: 29.08
The results of antibiotic drug inhibiting cancer cell lines (cell viability analysis), HeLa [10]: 41.02
The results of antibiotic drug inhibiting cancer cell lines (cell viability analysis), C-33A [11]: 42.12
The results of antibiotic drug inhibiting cancer cell lines (cell viability analysis), PC-3 [12]: 54.81
The results of antibiotic drug inhibiting cancer cell lines (cell viability analysis), TSGH-8301 [13]: 43.63
The results of antibiotic drug inhibiting cancer cell lines (cell viability analysis), T24 (T24): 41.2
The results of antibiotic drug inhibiting cancer cell lines (cell viability analysis), MCF-7 [14]: 53.67
The results of antibiotic drug inhibiting cancer cell lines (cell viability analysis), MDA-MB231 [15]: 48.29
The results of antibiotic drug inhibiting cancer cell lines (cell viability analysis), BxPC-3 (BxPC-3): 47.7
The results of antibiotic drug inhibiting cancer cell lines (cell viability analysis), AsPC-1 (AsPC-1): 46.57
The results of antibiotic drug inhibiting cancer cell lines (cell viability analysis), NIH-OVCAR-3 (NIH: OVCAR-3): 66.99
The results of antibiotic drug inhibiting cancer cell lines (cell viability analysis), TOV-21G (TOV-21G): 28.95
The results of antibiotic drug inhibiting cancer cell lines (cell viability analysis), SAS [16]: 31.98
The results of antibiotic drug inhibiting cancer cell lines (cell viability analysis), U2OS (U-2OS): 51.75
The results of antibiotic drug inhibiting cancer cell lines (cell viability analysis), 786-O [17]: 18.27
viability [18]: 29.5%
